In patent US20240270731A1, “[…]” (ALEBUND PHARMACEUTICALS (HONG KONG) LIMITED, priority 2021, published 2024):

Columns and labels:
[1] = test system: rat model of hyperlipidemia induced by high cholesterol diet; test: Rat model of hyperlipidemia induced by high cholesterol diet (serum TG, NEFA); type: in vivo, Sprague-Dawley rats
Text: On the day before the start of the administration (Day 0), the animals were divided into 7 groups based on body weights and serum indicators and were continually fed with the high-cholesterol diet. The treatment groups were orally dosed with either compound or vehicle while continuing the high-cholesterol diet for a total of 1 week. The animals were weighed daily before the treatment, and the compounds were given at 9:00-9:30 in the morning based on the body weight of the day.

[2] = test system: rat model of unilateral ureteral obstruction; test: Renal injury in rat model of unilateral ureteral obstruction; conditions: 0.2 mg/kg oral daily, 14 treatment days
Description: Housing temperature was maintained at 20-26° C. and humidity at 40%-60%. Rats were fed with a standard chow and allowed to access food and water ad libitum.
The formulation was prepared twice a week.
Vehicle or compounds were administrated by orally gavage daily. Unilateral ureteral obstruction was performed on the second day of compound treatment. Animals in model group, reference group and compound group underwent urethral ligation under isoflurane anesthesia one hour after receiving compound administration. A flank incision was cut to expose the left ureter, and a 4-0 surgical suture was used to perform two-point ligation to achieve urethral obstruction. Ureter was cut between the two ligation points. Animals in the control group were subjected to the same surgical treatment except the ligation and cut.
Rats were sacrificed after 14 days' compound treatment. The obstructed kidney was weighed and collected for histology. The tissue samples were fixed with formalin, and then paraffin embedded. The embedded tissue was sectioned and stained with hematoxylin & eosin and Masson trichrome to assess kidney structure and fibrosis.
The multiple comparison was analyzed with the Kruskal-Wallis non-parameter test. The Dunn's test was used to compare the difference to the model group.

[3] = test system: db/db type 2 diabetes model; test: Pharmacodynamics study on the db/db type 2 diabetes model
Text: 45 db/db mice were evenly divided into 5 groups before the initiation of treatment based on the body weights, serum triglyceride (TG) levels, and random blood glucose levels.
All animals were weighed daily before each dosing and treated daily for 14 consecutive days.
All the data was imported into an Excel file and presented as Mean±SEM. Graphpad Prism 7.0 software was used for data statistical analysis by One-way or Two-way ANOVA, with P<0.05 as the criterion of significant differences.

[4] = test system: uninephrectomied db/db mice; test: Diabetic nephropathy pharmacodynamic model (uninephrectomied db/db mice)
Description: Housing temperature was maintained at 22-26° C. and humidity at 40%-60%. Mice were allowed to access food and water ad libitum. […] Buprenorphine was applied after surgery.
Two weeks after surgery, db/db mice were randomly assigned into 5 groups. Wild type mice were used for the control animals. […] Compounds were orally administrated once per day for 10 weeks.
At the 5th and 9th week after compound administration, mice were placed in metabolic cages for urine collection. Albumin level was measured for 24 hr albumin excretion calculation. At the 10th week after treatment, the animals were sacrificed for kidney dissection. The kidney was fixed in 10% neutral buffed formalin, then paraffin-embedded for histopathological analysis. Glomerulosclerosis was assessed by evaluating glomerular basement membrane, mesangial expansion, nodular sclerosis and glomerulosclerosis.
Graphpad 8.0 software was used for statistical analysis. The difference between the values were analyzed with one-way ANOVA. The difference between histopathological score was analyzed with Kruskal-Wallis nonparameter test.

Q: Which results are given for CO[C@@H](Cc1ccc(OCCc2nc(-c3ccccc3)oc2C)c2ccsc12)C(=O)O (single isomer, unassigned) [Compound 2]?
A: Serum NEFA compared with Aleglitazar ([1]; 0.2 mg/kg, T-test, P<0.05): significantly reduce; Serum TG compared with Aleglitazar ([1]; 0.2 mg/kg, T-test, P<0.05): significantly reduce; Serum TG and NEFA levels compared with the vehicle group ([1]; Day 8, both 0.2 mg/kg and 0.6 mg/kg): significantly reduce; Total score of renal focal lesions (infract, tubular dilation, tubular obstruction, fibrosis, necrosis) compared with model group [2]: significantly improved; OGTT blood glucose compared with the vehicle group ([3]; 0.05 mg/kg, all time points): did not reach statistical significance; Serum TG levels compared with the vehicle group ([3]; Day 6 and Day 12, Aleglitazar 0.2 mg/kg, Compound 2 at different dosages): significantly lower; Effect on lowering blood glucose compared with Aleglitazar ([3]; random blood glucose, Day 7 and Day 14): slightly weaker effect; OGTT AUC0-120min compared with Aleglitazar ([3]; same dose level (0.2 mg/kg)): higher; 24-hour urinary albumin compared with vehicle ([4]; 5th and 9th weeks after compound administration, 0.1, 0.3, 1 mg/kg oral once per day): significantly decreased; Renal tubular injury (histopathology) ([4]; all dosage levels (0.1, 0.3, 1 mg/kg), 10 weeks): improved the tubular injury at some extend; Glomerulosclerosis histopathological score and glomerular volume ([4]; high dose (1 mg/kg), 10 weeks): statistically significantly reduced
